Measurements: patent publication US20030134329A1, “Cross-species bioactive peptides” (priority 2001, published 2003)

Legend:
FLO11 = test: PFLO11-lacZ reporter, β-galactosidase activity; assay type: cell-based, S. cerevisiae; conditions: for FL011-lacZ (relative expression): Table 1, strain MY1405 with plasmid MB1339, control pTCN23 = 1.0; for FLO11-lacZ (relative expression): Table 2, strain MY1405 with MB1339, control pTCN23 = 1.0
Text: Transformation of S. cerevisiae was by lithium acetate/single-stranded carrier DNA/polyethylene glycol (LiAc/ss-DNA/PEG) protocol (see, e.g., Gietz and Woods (1998), in: Methods in Microbiology, Chapter 26, Brown and Tuite, eds., Academic Press, New York; Agatep et al. (1998), TTO 1:P01525, Technical Tips Online at http://tto.trends.com) with a library of plasmids expressing unique random peptide sequences in the context of a Staphylococcal nuclease “scaffold” to generate more than 20 million independent Ura^+ transformants (Norman et al. (1999), Science 285:591-595). The transformants were replica-plated to YPD plates supplemented with […] G418 to select for clones with increased expression of the invasion-related reporter (FLO11) and consequent G418 resistance. Plates were incubated at 30° C. for 2-4 days and resistant clones were collected in pools (50 pools total) by scraping the colonies off each plate in a small volume of water. Plasmids were isolated as a pool (Hoffman and Winston (1986), Gene 57:267), transformed into E. coli, and re-transformed as a pool into the original selection strain, MY1560. Ura^+ transformants were again replica plated to YPD+100 μg/ml G418 plates. […] Positive clones were further tested for plasmid dependence by (1) examining the correlation between spontaneous loss of the peptide-expressing plasmid and loss of G418 resistance, and (2) recovering the plasmid from the yeast, retransforming into the original selection strain, and characterizing the G418 resistance. […] The remaining candidate peptides were characterized for their effects on expression of PFLO11-lacZ reporter constructs. This was performed by co-transforming the candidate plasmid into S. cerevisiae strain MY1405 (MATα ura3Δ0 his3Δ0::hisG trp1Δ0::hisG) which contains plasmid MB1339 [PFLO11-lacZ TRP1 […]] and measuring β-galactosidase activity.

PHWP1-lacZ reporter = PHWP1-lacZ reporter visual screen on X-Gal plates; assay type: cell-based, C. albicans
[1] = test system: hyphal transition in C. albicans; test: serum induction assay of hyphal transition; assay type: cell-based; conditions: C. albicans transformants, serum inducing media, 37° C., relative to parent staph nuclease scaffold
SMP1 = conditions: Table 2, strain MY1405 with MB1338, control pTCN23 = 1.0
Text: S. cerevisiae strain MY1561 (MATα/MATαΔ::LEU2 ura3Δ::PSMP1-neo/ura3Δ0 leu2Δ0/leu2Δ0 trp1Δ0::hisG/trp1Δ0::hisG/his3Δ0::hisG/his3Δ0::hisG) was transformed with the peptide library as described above to generate 10 million independent Ura^+ clones. The transformed clones were mated to lawns of S. cerevisiae strain MY1406 [MB1337] and subsequently replica-plated to SC-Ura-Trp plates to select for triploids carrying the library clones in addition to the PSMP1-neo reporter. […] The MY1561/MY1406 [MB1337] triploids were replica-plated to YPD plates containing 100, 150, and 200 μg/ml G418, and resistant colonies were picked and retested, and their phenotypes were checked for library plasmid dependence using 5-FOA. Promising candidates were lysed and their plasmids recovered in E. coli, amplified, and reintroduced into MY1561 along with MB 1337(MY1561 is an S. cerevisiae strain and MB 1337 is a plasmid). […] In addition, S. cerevisiae strain MY1405 was transformed with the peptide clones along with MB1338 [PSMP1-lacZ TRP1 2 micron] and MB1339 [PFLO11-lacZ TRP1 2 micron], and the enzyme assays were monitored. […] Peptide inhibitors of invasion were further characterized for their effects on calcofluor resistance, a phenotype associated with mutations in the rim101/pH response pathway.

[2] = test system: FLO11 promoter (PFLO11) fused to the neo gene; test: PFLO11-neo reporter selection: G418 resistance on YPD; assay type: cell-based, S. cerevisiae; conditions: strain MY1560, YPD + 100 μg/ml G418
Text: To identify peptides that promote invasion we used S. cerevisiae strain MY1560 (MATα/MATαΔ::LEU2 ura3Δ::PFLO11-neo/ura3Δ0 leu2Δ0/leu2Δ0 trp1Δ0::hisG/trp1Δ10::hisG his3Δ0::hisG/his3Δ0::hisG). This strain contains the FLO11 promoter (PFLO11) fused to the neo gene conferring resistance to the drug G418. FLO11 is a cell-surface flocculin required for pseudohyphal and invasive growth in S. cerevisiae. […] Thus, altered FLO11 expression can be used as an indicator of an altered invasion phenotype.
It was empirically determined that the wild type MY1560 strain (untransformed or transformed with a plasmid representing the peptide library staph nuclease scaffold) is unable to grow on YPD media supplemented with 100 μg/ml G418. In contrast, hyperinvasive strains are resistant to this concentration of the drug and form colonies on G418-supplemented YPD media. Thus, transformation of this strain with an invasion-promoting peptide should render the cells capable of growing on G418-supplemented YPD media. […]

“QPWYRKLRLAPVYPSD [Clone 5-39-1a, invasion-promoting random peptide expressed in loop of Staphylococcal nuclease scaffold]” was tested, and the “FL011-lacZ (relative expression)” value (FLO11) was 17.8.

With “LYRAFTWPVAKSLRME [5-37, 1, invasion-promoting random peptide expressed in loop of Staphylococcal nuclease scaffold]” the “FL011-lacZ (relative expression)” value (FLO11) was 6.1.

With “KRKVCLLGGRFLVEWL [4-16, 2, invasion-promoting random peptide expressed in loop of Staphylococcal nuclease scaffold]” the “FL011-lacZ (relative expression)” value (FLO11) was 14.8.

In the case of “ALARWLEIELHPQGLI [5-16, 3, invasion-promoting random peptide expressed in loop of Staphylococcal nuclease scaffold]”, the “FL011-lacZ (relative expression)” value (FLO11) is reported as 13.3.

“PYGPFLLLTPF*A*L [5-32, 1, invasion-promoting random peptide in Staphylococcal nuclease scaffold; * denotes a stop codon; C. albicans expression plasmid MB2756]” was tested, and the “FL011-lacZ (relative expression)” value (FLO11) was 15.1, the “β-galactosidase expression (PHWP1-lacZ reporter)” value (PHWP1-lacZ reporter) was “higher level of β-galactosidase expression” and the “morphological switch between yeast and filamentous growth (hyphal transition)” value [1] was “effective in inducing the morphological switch between yeast and filamentous growth”.

For LGYMRASREMDGWKLL [Clone D2a], the “FLO11-lacZ (relative expression)” value (FLO11) was 0.3 and the “SMP1-lacZ (relative expression)” value (SMP1) was 15.4.

In the case of LPYEVSRVCWPRRLGY [Clone D2e], the “FLO11-lacZ (relative expression)” value (FLO11) is reported as 0.1 and the “SMP1-lacZ (relative expression)” value (SMP1) is reported as 14.3.

In the case of “MGCVKRLLWGCCMKLT [Clone 5-64-1, invasion-promoting random peptide expressed in loop of Staphylococcal nuclease scaffold]”, the “FL011-lacZ (relative expression)” value (FLO11) is reported as 2.0.

In the case of “RCPVAHTLCWEVAGCT [Clone 5-43-3b, invasion-promoting random peptide expressed in loop of Staphylococcal nuclease scaffold]”, the “FL011-lacZ (relative expression)” value (FLO11) is reported as 9.6.

In the case of “HGDGLMRYFWSVAMWT [Clone 5-12-1a, invasion-promoting random peptide expressed in loop of Staphylococcal nuclease scaffold]”, the “FL011-lacZ (relative expression)” value (FLO11) is reported as 2.7.

“KRGRRRSHSCPSLMTD [4-1, 1, invasion-promoting random peptide expressed in loop of Staphylococcal nuclease scaffold]” was tested, and the “FL011-lacZ (relative expression)” value (FLO11) was 2.2.

With “CGLGGCCCEIFWSFSN [5-30, 3, invasion-promoting random peptide expressed in loop of Staphylococcal nuclease scaffold]” the “FL011-lacZ (relative expression)” value (FLO11) was 7.3.

With “LDLDRVSVNRCSFMGF [Clone 5-20-1a, invasion-promoting random peptide expressed in loop of Staphylococcal nuclease scaffold]” the “FL011-lacZ (relative expression)” value (FLO11) was 2.8.

With “EWCEICHRLVWVFCFT [5-34, 3, invasion-promoting random peptide expressed in loop of Staphylococcal nuclease scaffold]” the “FL011-lacZ (relative expression)” value (FLO11) was 4.1.

For “AFSRRGRRAWSWPVSN [5-48, 2, invasion-promoting random peptide expressed in loop of Staphylococcal nuclease scaffold]”, the “FL011-lacZ (relative expression)” value (FLO11) was 12.9.

LTGYAKLLVQLSYFAM [Clone B2c-2] was tested, and the “FLO11-lacZ (relative expression)” value (FLO11) was 0.7 and the “SMP1-lacZ (relative expression)” value (SMP1) was 6.4.

For LAYGPERYPRACMRWD [Clone B2a], the “FLO11-lacZ (relative expression)” value (FLO11) was 0.2 and the “SMP1-lacZ (relative expression)” value (SMP1) was 8.9.

In the case of LPVSYVGQSTSQGPVW [Clone G4a-6], the “FLO11-lacZ (relative expression)” value (FLO11) is reported as 0.4 and the “SMP1-lacZ (relative expression)” value (SMP1) is reported as 7.8.

For “SGDAVMGFLLKCLGLQ [5-31, 2, invasion-promoting random peptide expressed in loop of Staphylococcal nuclease scaffold]”, the “FL011-lacZ (relative expression)” value (FLO11) was 12.6.

For “WWRPHERFIWAQYYLA [5-14, 3, invasion-promoting random peptide expressed in loop of Staphylococcal nuclease scaffold]”, the “FL011-lacZ (relative expression)” value (FLO11) was 4.9.

With “GAGCAPRGCVVWSSLL [4-3, 1, invasion-promoting random peptide expressed in loop of Staphylococcal nuclease scaffold]” the “FL011-lacZ (relative expression)” value (FLO11) was 2.5.

For “REINWLRFFRLHKVID [5-45, 2, invasion-promoting random peptide expressed in loop of Staphylococcal nuclease scaffold]”, the “FL011-lacZ (relative expression)” value (FLO11) was 6.2.

With LSYMEGPYWHRSFRAV [Clone G2a] the “FLO11-lacZ (relative expression)” value (FLO11) was 0.5 and the “SMP1-lacZ (relative expression)” value (SMP1) was 7.5.

For “GHLWEWSGERWLLRWC [5-23, 1a, invasion-promoting random peptide expressed in loop of Staphylococcal nuclease scaffold]”, the “FL011-lacZ (relative expression)” value (FLO11) was 12.2.

With “RRWEVLRGDRTARLLS [5-25, 2, invasion-promoting random peptide expressed in loop of Staphylococcal nuclease scaffold]” the “FL011-lacZ (relative expression)” value (FLO11) was 13.7.

“GRRSRVRWSWPLFKSL [5-28, 3, invasion-promoting random peptide expressed in loop of Staphylococcal nuclease scaffold]” was tested, and the “FL011-lacZ (relative expression)” value (FLO11) was 18.2.

“YEAGVILRACLWAVSG [4-17, 1, invasion-promoting random peptide expressed in loop of Staphylococcal nuclease scaffold]” was tested, and the “FL011-lacZ (relative expression)” value (FLO11) was 10.5.

In the case of “QRIPLIGGVLFIAWIM [Clone 5-11-3a, invasion-promoting random peptide expressed in loop of Staphylococcal nuclease scaffold]”, the “FL011-lacZ (relative expression)” value (FLO11) is reported as 3.0.

“GYLRKHRALALGLNLH [4-9, 3, invasion-promoting random peptide expressed in loop of Staphylococcal nuclease scaffold]” was tested, and the “FL011-lacZ (relative expression)” value (FLO11) was 11.5.

“ELAYKFGRDWARLYFS [Clone 5-75-1, invasion-promoting random peptide expressed in loop of Staphylococcal nuclease scaffold]” was tested, and the “FL011-lacZ (relative expression)” value (FLO11) was 15.0.

LGYGEAEREMVTCREH [Clone D4a] was tested, and the “FLO11-lacZ (relative expression)” value (FLO11) was 0.1 and the “SMP1-lacZ (relative expression)” value (SMP1) was 9.1.

With “GSNGCVSVSSSVTSFM [5-49, 3, invasion-promoting random peptide expressed in loop of Staphylococcal nuclease scaffold]” the “FL011-lacZ (relative expression)” value (FLO11) was 2.5 and the “PFLO11-neo Mediated G418^R” value [2] was “+w”.

“RRWNRLKSWWPCFREQ [Clone 5-18-3b, invasion-promoting random peptide expressed in loop of Staphylococcal nuclease scaffold]” was tested, and the “FL011-lacZ (relative expression)” value (FLO11) was 2.6.
